These results are taken from patent publication US20230303544A1, “LMO2 PROTEIN INHIBITORS” (UNIVERSITY OF OXFORD, priority 2020, published 2023).

The target of one assay is T1, scFv-LMO2 (Homo sapiens, UniProt P25791).
T1 construct: made in house; host or cells: E. coli C41 (DE3)
T1 sequence (P25791 1-158): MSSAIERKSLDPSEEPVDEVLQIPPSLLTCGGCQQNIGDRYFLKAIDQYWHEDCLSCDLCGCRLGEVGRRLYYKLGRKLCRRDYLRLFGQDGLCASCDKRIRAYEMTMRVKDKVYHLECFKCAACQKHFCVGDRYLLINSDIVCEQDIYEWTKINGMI
The assay is described as follows: Photoaffinity labelling (PAL) pulldown. To be noted: 20 μM Abd-L26, UV light, avidin beads. The assay is classed as binding. On the procedure:
20 μM of Abd-L26 with or without 100 μM of Abd-L9 (competitor) are added in a final volume of 400 μL of PBS with 40 μg of purified protein of interest (scFv-LMO2). The same samples are prepared for the no UV controls. The samples are incubated for 25 minutes at RT. The samples to be crosslinked are put into ice and under the UV lamp for crosslinking for 1 hour. The no UV controls are kept on ice. During the 1 hour of crosslinking, the agarose monomeric avidin beads (Cat #20228, Thermofisher) are washed twice with PBS. After the crosslink, 20 μL of washed beads are added in all the samples (crosslinked and non-crosslinked) and incubated for 2 hours at 4° C. on a roller. 2 hours later, wash the beads three times with 400 μL of PBS. The samples are finally denatured with 50 μL of 2× loading buffer with BME added directly on the beads (and boiled at 100° C. for 5 minutes) and loaded for a western blot analysis.

Assay [1] concerns the target T2, LMO2-iDAb LMO2 (unmutated iDAb) interaction (Homo sapiens, UniProt P25791).
T2 construct: LMO2 cDNA was cloned into the pEF-RLuc8-MCS and pEF-MCS-RLuc8 plasmids; expressed in transfected cells; host or cells: HEK293T
T2 sequence (P25791 1-158): T1 sequence (P25791 1-158)
The experiment in a line: LMO2-iDAb LMO2 (unmutated iDAb) BRET assay. It is filed as cell-based. As to conditions: BRET dose response. On the procedure: (§1) For all BRET experiments (titration curves and competition assays) 650,000 HEK293T were seeded in each well of a 6 well plates. After 24 hours at 37° C., cells were transfected with a total of 1.6 μg of DNA mix, containing the donor+acceptor±competitor plasmids, using Lipofectamine 2000 transfection reagent (Thermo-Fisher). In dose response competition experiments, competitors were transfected with the following amount of DNA: 0.1; 0.5 and 1 μg. In single dose competition experiments, competitors were transfected with […] of DNA. Cells were detached 24 hours later, washed with PBS and seeded in a white 96-well plate (clear bottom, PerkinElmer, Cat #6005181) in OptiMEM no phenol red medium complemented with 4% FBS and cells were incubated for an additional 20-24 hours at 37° C. before the BRET assay reading. A detailed BRET protocol is provided by Bery and Rabbitts, (2019).
Compounds were prepared in 100% DMSO at 10 mM. […]
BRET2 signal was determined immediately after injection of coelenterazine 400a substrate (10 μM final) to cells (Cayman Chemicals), using a CLARIOstar instrument (BMG Labtech) with a luminescence module. Total GFP^2 fluorescence was detected with excitation and emission peaks set at 405 nm and 515 nm respectively. Total RLuc8 luminescence was measured with the Luminescence 400-700 nm-wavelength filter. […]
On the technique in general: BRET reads energy transfer from a luciferase to a nearby fluorophore.

The target in assay [2] is T3, LMO2-iDAb LMO2dm3 interaction (Homo sapiens, UniProt P25791).
T3 construct: LMO2 cDNA was cloned into the pEF-RLuc8-MCS and pEF-MCS-RLuc8 plasmids; expressed in transfected cells; host or cells: HEK293T
T3 sequence (P25791 1-158): T1 sequence (P25791 1-158)
The experiment in a line: LMO2-iDAb LMO2dm3 BRET assay. It is filed as cell-based. As to conditions: BRET dose response, HEK293T cells, 0.01-50 μM, 22 h. On the procedure: as §1
Compounds were prepared in 100% DMSO at 10 mM. For BRET competition assays, cells were treated with the indicated compounds at concentration of 1 (or 5), 10 and 20 μM for 22 h. For BRET-based dose response experiments, cells were treated with compounds at concentration of 0.01, 0.1, 1, 4, 10, 25 and 50 μM for 22 h. The compounds were diluted in the BRET medium: OptiMEM no phenol red (Life Technologies) supplemented with 4% FBS and with a final concentration of 0.2% DMSO.
BRET2 signal was determined immediately after injection of coelenterazine 400a substrate (10 μM final) to cells (Cayman Chemicals), using a CLARIOstar instrument (BMG Labtech) with a luminescence module. Total GFP^2 fluorescence was detected with excitation and emission peaks set at 405 nm and 515 nm respectively. Total RLuc8 luminescence was measured with the Luminescence 400-700 nm-wavelength filter.
The BRET signal or BRET ratio corresponds to the light emitted by the GFP^2 acceptor constructs (515 nm±30) upon addition of coelenterazine 400a divided by the light emitted by the RLuc8 donor constructs (410 nm±80). The background signal is subtracted from that BRET ratio using the donor-only negative control where only the RLuc8 fusion plasmid is transfected into the cells. The normalized BRET ratio is the BRET ratio normalized to a negative control (iDAb control or DMSO control) during a competition assay. Total GFP^2 and RLuc8 signals were used to control the protein expression from each plasmid.

Entries after “also recorded” stand apart in the source; their conditions may differ.

For orientation: IC50 means the point on the concentration scale where inhibition reaches its midpoint. Read a high IC50 as a need for much substance.

Turning to `O=C(CCCC[C@H]1SC[C@H]2NC(=O)N[C@H]21)NCCOCCOCC(=O)Nc1ccc(NC(=O)c2coc(N3CCN(Cc4ccc(C(=O)c5ccccc5)cc4)CC3)n2)cc1` [Abd-L26, 2-(4-(4-benzoylbenzyl)piperazin-1-yl)-N-(4-(2-(2-(2-(5-((3aR,4R,6aS)-2-oxohexahydro-1H-thieno[3,4-d]imidazol-4-yl)pentanamido)ethoxy)ethoxy)acetamido)phenyl)oxazole-4-carboxamide], the “photo-crosslinking to LMO2 protein (pulldown, Western blot)” value at scFv-LMO2 is recorded as “observed a biotin labelled protein; also recorded: confirmed binding to LMO2 protein”.

In the case of `COc1cccc(CN2CCN(c3nc(C(=O)Nc4ccc(OC)nc4)cs3)CC2)c1` [Abd-L22, 2-(4-(3-methoxybenzyl)piperazin-1-yl)-N-(6-methoxypyridin-3-yl)thiazole-4-carboxamide], the “concentration at which LMO2-iDAb LMO2 interaction is inhibited” value in assay [1] is “above 25 μM”. In addition, the IC50 in assay [2] came out at 6.8 µM.
